According to patent US10154991B2, “Anesthetic compounds and related methods of use” (priority 2012, dated 2018):
Like-named read-outs stand apart in the source and are kept apart here.

Columns and labels:
[1] = Octanol:water partition coefficients; type: physicochemical; conditions: 10 mM Tris pH 7.4; read-out: Octanol/Water Partition Coefficient ± SD (converted)
Procedure: One mg of each hypnotic was added to 10 ml of water buffered with 10 mM Tris (pH 7.4) and 0.5 ml or 1 ml of octanol. The mixture was stirred overnight and then centrifuged to more fully separate the organic and aqueous phases. The relative hypnotic concentrations in each phase (i.e. the partition coefficient) were determined by high performance liquid chromatography as described for blood.

[2] = In vitro metabolic half-life of hypnotics in rat blood; type: in vitro ADME; conditions: rat blood; for half-life at 100 μM: Sprague-Dawley, rat
Procedure: On the day of study, whole blood was drawn from the femoral venous catheters of 3 Sprague-Dawley rats (1-2 ml/rat), immediately anticoagulated with heparin (38 U), pooled, and stored on ice. A 1 ml aliquot of blood was warmed at 37° C. for 5 minutes and hypnotic (from a 40 mM in dimethyl sulfoxide stock solution) was added to a final concentration of 100 μM. After the desired incubation time, a 150 μl sample was removed and the metabolic reaction was quenched with 150 μl acetonitrile (Sigma-Aldrich, St. Louis, Mo.). Zero time point samples were prepared by adding 150 μl acetonitrile to blood prior to adding hypnotic (from a 4 mM in dimethyl sulfoxide stock solution). The quenched samples were centrifuged and the resultant supernatant separated and stored at −20° C. until analyzed. Hypnotic concentrations in thawed samples were determined by high performance liquid chromatography using a Varian Prostar system with a 4.6×250 mm Proto 300 C18 column (Nest Group, Southborough, Mass.) with the UV detector set at 240 nm.

rats = experiment: loss of righting reflexes (LORR) assay after IV bolus; conditions: for ED50: Rattus norvegicus, iv, read-out: ED50 ± SD; for Slope of Duration vs. Log Dose ± SD: duration of LORR vs log dose, rats
Procedure: Adult male Sprague-Dawley rats (230-350 gm) were purchased from Charles River Laboratories (Wilmington, Mass.) and housed in the Massachusetts General Hospital Center for Comparative Medicine animal care facility. All drugs were administered through a femoral venous catheter pre-implanted by the vendor prior to animal delivery to our animal care facility.
Immediately after injection, rats were turned supine. […] A stopwatch was used to measure the duration of LORR, which was defined as the time from drug injection until the animal spontaneously righted itself.

[3] = From Pejo et al.; cited from earlier work
Sprague-Dawley rats = experiment: In vivo sedative/hypnotic testing, IV bolus, rats; set-up: species or system rat; conditions: for slope of duration of LORR vs logarithm of dose: rats
Procedure: (§1) Animals were housed in a dedicated room at the vivarium of VivoPath Inc., located at Redstone Center, 55 Union Street, Worcester, Mass. Housing and care was as specified in the USDA Animal Welfare Act (9 CFR, Parts 1, 2, and 3) and as described in the Guide for the Care and Use of Laboratory Animals from the National Research Council. Environmental conditions of housing rooms are set at the following ranges: temperature: 70±7° F. (22±4° C.), humidity: 50±20%, light cycle: 12-hour light/12-hour dark cycle—lights on at 7 am and off at 7 pm., air changes: ten or more air changes per hour with 100% fresh air. The animals' body weights were measured prior to the first dose on each experimental day.
Adult male Sprague-Dawley rats (225-300 g) were purchased from Harlan (South Easton, Mass.).
(§2) Drugs were prepared in either dimethylsulfoxide/saline or saline vehicle or hydroxypropyl-β-cyclodextrin (20% in water, pH 7.0) solution and were administered as an intravenous bolus injection. Animals received 1-4 doses of drug(s) during an experimental day, either ascending doses or different drugs. Doses were administered at intervals equal to the longer of 1 h or 10-times the duration of apparent sedative/hypnotic effects from the previous dose. The sedative/hypnotic properties of the drugs were evaluated by observation of the rats, ranging from mild excitation, mild sedation apparent due to reduced activity, and moderate sedation to hypnosis reflected by loss of righting reflex (LORR, the ability to place rear and hind legs under the body, as well as attenuation/loss of nociceptive reflexes).

[4] = test system: adrenal cortisol production
Procedure: Dexamethasone (0.01 mg/kg) was administered two hours before the first administration of ACTH and re-administered every 2 hours to maintain suppression. Dexamethasone pretreatment suppresses the hypothalamo-hypophyseal axis to prevent endogenous ACTH release and subsequent adrenocortical steroid secretion. […] Synthetic ACTH (Synacthen, 250 μg) was then administered at times after test substance administration to evaluate the effects of the test substance on the release of the adrenal steroid, cortisol.
All study methods described for Study 1 were repeated, except the ACTH administration at the end of infusion was omitted.

ICR mice = experiment: In vivo sedative/hypnotic testing, IV bolus, mice; set-up: species or system mouse; conditions: for slope of duration of LORR vs logarithm of dose: mice
Procedure: as §1
Adult ICR mice (20-30 g) were purchased from Harlan (South Easton, Mass.). Drugs were administered as intravenous bolus injection in a tail vein.
as §2

beagle dogs = conditions: dogs
Procedure: A pilot study was conducted in dogs to assess anesthesia induced by cyclopropyl-MOC-metomidate continuous infusion without a bolus induction dosing. Two dogs received cyclopropyl-MOC-metomidate as a 1 mg/kg/min IV infusion without prior bolus administration.
Anesthesia induction was determined using the methods described above.
Etomidate was administered to dogs at IV bolus doses ranging from 0.25 to 2 mg/kg. Anesthesia in the dogs was measured as described above. […] The bolus dose of 2 mg/kg was adopted to induce anesthesia prior to subsequent continuous infusions.
Propofol was administered to dogs as an IV bolus dose of 5 mg/kg to induce anesthesia followed by a continuous infusion at 0.4 mg/kg/min.

dogs and monkeys = experiment: Preliminary studies of duration of action in dogs and monkeys; type: in vivo; conditions: large animals, similar to that in rats
[5] = pooled heparinised whole blood, 37° C., 100 μM, read-out: Blood Half-Life (95% CI)

Row | Structure (SMILES) | logD [1] | half-life at 100 μM [2, 5] | ED50 (rats) | slope of duration of LORR vs logarithm of dose (Sprague-Dawley rats) | slope of duration of LORR vs logarithm of dose (ICR mice) | Slope of Duration vs. Log Dose ± SD (rats) | other results
1 | COC(=O)[C@@H](C)COC(=O)c1cncn1[C@H](C)c1ccccc1 [α-(S)- methyl- methoxycarbonyl etomidate, α-S-methyl-methoxycarbonyl etomidate] | 2.72 | 0.76 min | 3.1 ± 0.4 mg/kg | – | – | – | metabolic half-life of S form compared with R form [2]: at least four-fold longer
2 | CCOC(=O)c1cncn1[C@H](C)c1ccccc1 [Etomidate, (R)-ethyl-1-(1-phenylethyl)-1H-imidazole-5-carboxylate, reference compound] | – | – | 0.53 ± 0.17 mg/kg | ~24 | approximately 10 | 24±4.7 min/(log mg/kg) | Octanol/Water Partition Coefficient ± SD [3]: 800 ± 180; ACTH-induced plasma cortisol response ([4]; Study 1, dogs, after 120-minute infusion): markedly inhibited; adrenal suppression ([4]; dogs, compared with the other test substances): more profound and durable adrenal suppression; involuntary movements during recovery (beagle dogs): extended periods of involuntary movements; bolus dose range inducing anesthesia (beagle dogs; IV bolus 0.25 to 2 mg/kg tested): 0.5 to 2 mg/kg; minimum initial effective continuous infusion dose rate (beagle dogs; after 2 mg/kg bolus): 0.15 mg/kg/min; respiratory effect during infusion (beagle dogs; after approximately 30 minutes at 0.15 mg/kg/min): decrease in respiratory rate; context dependence of recovery from anesthesia (beagle dogs; bolus vs 30- or 120-minute infusion): marked context-dependency
3 | COC(=O)CC(C)(C)OC(=O)c1cncn1[C@H](C)c1ccccc1 [β-dimethyl- methoxycarbonyl etomidate, β-dimethyl-MOC-etomidate] | 3.2 | 23.4 min | 1.9 ± 0.3 mg/kg | – | – | – | –
4 | COC(=O)CCOC(=O)c1cncn1[C@H](C)c1ccccc1 [Methoxycarbonyl etomidate, methoxycarbonyl etomidate, reference compound] | 2.28 | 0.41 min | 5.3 ± 1.5 mg/kg | approximately 1.0 | approximately 1.0 | 1.0±0.3 min/(log mg/kg) | Rat response (Sprague-Dawley rats; IV bolus, doses as in the cell): Sedation/hypnosis induced at 8 &; ED50 (Sprague-Dawley rats; Rattus norvegicus, sedation/hypnosis, IV): ~8 mg/kg; half-life at 100 μM ([2]; 37° C., 100 μM, read-out: Blood Half-Life (95% CI)): 0.14 min; half-life at 100 μM ([2]; bound based on the lower limit of quantification, read-out: metabolic half-life in rat blood (converted)): 0.333 min; ED50 (ICR mice; Mus musculus, sedation/hypnosis, IV): ~10 mg/kg; duration of action (dogs and monkeys): 1 to 2 min
